Experimental findings from ChEMBL document CHEMBL1201862, “PubChem BioAssay data set” (2004) are described below.

Test systems include LXFL 529; KM-20L2; HOP-18; DMS-273; MDA-N; BT-549; DLD-1; XF498.
What all share (assay): growth of human tumour cells (NCI), 48 h

The structures appear in SMILES notation.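 Growth conditions: 96-well plates. Treatment: test compound, 48 hours, 5 concentrations. Analysis: linear interpolation between bracketing concentrations; unreached endpoints set to highest concentration. Abbreviation: GI50, concentration required for 50% inhibition of growth.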 Calls of active or inactive are those of the source. No stated cut-off is given here; in the data, active = GI50 up to about 1.1 µM and inactive = higher.

In the case of `CC1(C)C(=O)CCC(=O)C(C)(C)C2=CC=C(O2)C(C)(C)C(=O)CCC(=O)C(C)(C)C2=CC=C1O2`, the GI50 with LXFL 529, in the experiment with KM-20L2, with HOP-18 and in the experiment with DMS-273 was > 100 µM (inactive) throughout.

For `O=C(O)C/C=C/CC(=O)O`, the GI50 in the experiment with MDA-N and in the experiment with BT-549 was > 100 µM (inactive) in each case.

As to `CC(=O)Nc1[nH]c(C#N)nc1C#N`, the GI50 in the experiment with MDA-N and in the experiment on BT-549 was > 100 µM (inactive) each time.

For `Cc1nc2ccc(F)cc2c2c1CCS2`, the GI50 in the experiment on BT-549 was 54.8 µM (inactive).

Turning to `CC1(C)CC(=O)C(CC2C(=O)c3ccccc3C2=O)C(=O)C1C(=O)C(=O)Nc1cccc2ccc(O)cc12` (configuration not stated), the GI50 in the experiment on BT-549 was 15 µM (inactive).

Regarding `c1ccc2c(c1)[nH]c1c3ccccc3sc21`, the GI50 in the experiment with MDA-N was > 100 µM (inactive).

As to `CC(=O)c1ccccc1NCC(=O)Nn1cnc2ccc(S(=O)(=O)Nc3ccccc3C(C)=O)cc2c1=O`, the GI50 in the experiment on MDA-N and in the experiment on BT-549 was > 100 µM (inactive) each time.

For the molecule `N#CC(NNC(=O)c1ccccc1O)c1c(O)ccc2ccccc12` (configuration not stated), the GI50 is 3.76 µM (inactive) in the experiment on LXFL 529; 17.9 µM (inactive) in the experiment with KM-20L2; 5.16 µM (inactive) in the experiment on MDA-N; 2.04 µM (inactive) with HOP-18; 2.52 µM (inactive) in the experiment on DMS-273; 7.11 µM (inactive) with BT-549. The GI50 in the experiment with DLD-1 was 2.06 µM (inactive).

For `O=C(CC1C=CCS1(=O)=O)NCc1ccccc1` (configuration not stated), the GI50 with MDA-N and in the experiment on BT-549 was > 100 µM (inactive) in each case.

With `O=C1Nc2ccccc2/C1=C\c1c(Cl)n(-c2ccccc2)c2ccccc12`, the GI50 is 1.14 µM (inactive) with MDA-N and 5.93 µM (inactive) in the experiment on BT-549.

As to `Cc1ccc(/C=C/C(=O)C(C)C)cc1`, the GI50 with LXFL 529 is 33.8 µM (inactive); with KM-20L2 it was 14.2 µM (inactive); with DLD-1 it was 51.9 µM (inactive).

Turning to `NC(=S)NNCC(=O)CC(O)(C(F)(F)F)C(F)(F)Cl` (configuration not stated), the GI50 with MDA-N and with BT-549 was > 100 µM (inactive) each time.

As for `CC(CCN)(CCN)[N+](=O)[O-]`, the GI50 in the experiment on MDA-N and with BT-549 was > 100 µM (inactive) each time.

For the molecule `CC(=O)N[C@H]1CCCC[C@@H]1OC(C)=O`, the GI50 with MDA-N and in the experiment on BT-549 was > 100 µM (inactive) each time.

Regarding `O=C(O)/C=N\N=c1[nH]c2ccccc2[nH]1`, the GI50 in the experiment on MDA-N and with BT-549 was > 100 µM (inactive) in each case.

With `O=C1c2ccccc2-c2c1c(-c1ccc(O)cc1O)nc1ccc3ccccc3c21`, the GI50 with MDA-N and in the experiment with BT-549 was > 100 µM (inactive) in each case.

For `CC(=O)O[C@H]1C(=O)[C@@]2(C)[C@H]([C@H](OC(=O)c3ccccc3)[C@]3(O)C[C@H](OC(=O)[C@H](O)[C@@H](NC(=O)c4ccc(N(C)C)cc4)c4ccccc4)C(C)=C1C3(C)C)[C@]1(OC(C)=O)CO[C@@H]1C[C@@H]2O`, the GI50 with MDA-N was < 0.005 µM (active); in the experiment with BT-549, 0.0188 µM (active).

Turning to `O=C(O)CN1CCN2CCCCCN(CC1)CCN(CC(=O)O)CC2`, the GI50 with MDA-N and in the experiment on BT-549 was > 100 µM (inactive) throughout.

In the case of `CCCCCc1cc2cc3c(c(O)c2c(=O)[nH]1)C1(CCC3)C(=O)c2c(O)c3c(c(O)c2C1=O)C(=O)C(OC)=CC3=O` (configuration not stated), the GI50 with MDA-N was 1.41 µM (inactive); with BT-549, 0.703 µM (active).

With `O=C(O)c1ccccc1/N=N/c1c(O)c(S(=O)(=O)O)cc2cc(S(=O)(=O)O)ccc12`, the GI50 with MDA-N and in the experiment with BT-549 was > 100 µM (inactive) in each case.

As to `COC(=O)c1cccc2c3ccccc3c3ccccc3c12`, the GI50 in the experiment on LXFL 529 was 28 µM (inactive); in the experiment on KM-20L2 it was 41.8 µM (inactive); in the experiment with HOP-18 it was 26.9 µM (inactive); in the experiment on DMS-273, 33.3 µM (inactive); with DLD-1 it was 65.9 µM (inactive).

For `Cc1cc2[nH]c3c(C#N)c(-c4ccccc4)c(/N=N/c4cccc(C(F)(F)F)c4)c(=O)n3c2cc1C`, the results for the GI50 in the experiment with MDA-N and in the experiment with BT-549 were 28.3 µM (inactive) and 44.2 µM (inactive), respectively.

With `COc1ccc(N2C(=O)C3c4[nH]c5ccc(C)cc5c4C4CCC(C(C)(C)C)CC4C3C2=O)cc1` (configuration not stated), the values for the GI50 with MDA-N and in the experiment on BT-549 were > 10 µM (inactive) and 20.7 µM (inactive), respectively.

As to `CCOC(=O)c1nc2ccc(C(F)(F)F)cc2nc1Nc1cc(OC)c(OC)c(OC)c1`, the GI50 in the experiment with MDA-N and with BT-549 was > 100 µM (inactive) in each case.

As for `C[C@H](CCC1=NCCN1)[C@H]1CC[C@H]2[C@@H]3CC[C@@H]4C[C@H](O)CC[C@]4(C)[C@H]3C[C@H](O)[C@]12C`, the GI50 with MDA-N was 14.6 µM (inactive); in the experiment on BT-549 it was 18.2 µM (inactive).

As to `C=C1CC(Cn2ccc(=O)[nH]c2=O)(c2ccc(-c3ccccc3)cc2)OC1=O` (configuration not stated), the values for the GI50 in the experiment on MDA-N and with BT-549 were 1.03 µM (active) and 1.86 µM (inactive), respectively.

On to `S=C1NCCN1`, for which the GI50 in the experiment on XF498, with LXFL 529, in the experiment with KM-20L2, with DMS-273 and in the experiment on DLD-1 was > 100 µM (inactive) throughout.

As to `Cc1ccc(Nc2nc(=O)c3c4ccccc4n(C(=O)OC(C)(C)C)c3s2)cc1`, the GI50 in the experiment on BT-549 is 26.6 µM (inactive).

Take `CC(=O)c1cccc(Nc2nc3ccccc3c3occc23)c1`: the GI50 in the experiment with BT-549 was 15.2 µM (inactive).

Take `NC(=S)N/N=C(\Cc1nc2ccc(Cl)cc2nc1O)C(=O)Nc1ccc(Cl)cc1`: the GI50 in the experiment with BT-549 was > 100 µM (inactive).

Turning to `N=C(CCl)NC1CN2CCC1CC2` (configuration not stated), the GI50 with MDA-N and in the experiment on BT-549 was > 100 µM (inactive) each time.

Consider `CCc1cccc(C)c1NC(=S)NC(=O)c1ccccc1C(=O)NC(=S)Nc1c(C)cccc1CC`, for which the GI50 in the experiment on LXFL 529 was 85.5 µM (inactive); in the experiment with KM-20L2, 91.8 µM (inactive); in the experiment on HOP-18, 50.7 µM (inactive); in the experiment with DMS-273 it was 95.3 µM (inactive); in the experiment with DLD-1, > 100 µM (inactive).

As for `CCc1nc(N)c2nc(-c3cccs3)oc2n1`, the GI50 in the experiment on MDA-N and with BT-549 was > 100 µM (inactive) throughout.

Take `OC(c1ccc(-c2ccccc2)cc1)C(F)(F)c1nc2ccccc2o1` (configuration not stated): the GI50 in the experiment on MDA-N was > 100 µM (inactive); in the experiment with BT-549, > 96.4 µM (inactive).

Consider `COC(=O)CC1NC(=O)C1C1(C)OCCO1` (configuration not stated), for which the GI50 in the experiment on XF498, with LXFL 529, in the experiment on KM-20L2, in the experiment on DMS-273 and in the experiment on DLD-1 was > 100 µM (inactive) in each case.

`CC(C)C[C@H](NC(=O)[C@H](Cc1cccc2ccccc12)NS(=O)(=O)c1cccc2cccnc12)B(O)O`: the figures for the GI50 in the experiment with MDA-N and in the experiment on BT-549 were < 0.01 µM (active) and < 0.0306 µM (active), respectively.

`CCOC(=O)Cc1c(Cc2[nH]c(C(=O)OCc3ccccc3)c(CC(=O)OCC)c2CC(=O)OCC)[nH]c(C(=O)OCc2ccccc2)c1CC(=O)OCC`: the GI50 in the experiment on LXFL 529, in the experiment with KM-20L2 and in the experiment on HOP-18 was > 100 µM (inactive) each time.

For the molecule `CCn1c(=O)c2c3ccc(OC)cc3[nH]c2c2ccc(OC)cc21`, the results for the GI50 in the experiment with MDA-N and in the experiment on BT-549 were 62.8 µM (inactive) and 79.4 µM (inactive), respectively.

As for `COc1c(O)c(OC)c2oc(-c3ccc(O)c(O)c3)c(OC)c(=O)c2c1O`, the GI50 in the experiment with MDA-N was 37.3 µM (inactive); in the experiment on BT-549 it was 6.81 µM (inactive).

As for `Clc1ccc(-c2nnc3sc4nc5ccccc5c-4nn23)c(Cl)c1`, the figures for the GI50 in the experiment with MDA-N and in the experiment on BT-549 were 28.6 µM (inactive) and 28.9 µM (inactive), respectively.

For the molecule `O=C(CN1CCN(Cc2ccccc2)CC1)c1ccc2[nH]c(=O)oc2c1`, the GI50 in the experiment on MDA-N and with BT-549 was > 100 µM (inactive) in each case.

`O=C1OC(Cl)C(N=P(c2ccccc2)(c2ccccc2)c2ccccc2)=C1Cl` (configuration not stated): the GI50 in the experiment with XF498, in the experiment with LXFL 529, in the experiment with DMS-273 and with DLD-1 was > 100 µM (inactive) throughout.

`CCOP(=O)(OCC)C(C)(CC)NC` (configuration not stated): the GI50 in the experiment with MDA-N and in the experiment with BT-549 was > 100 µM (inactive) in each case.

For `Oc1cc(-c2ccccc2Cl)nc2cc3c(cc12)OCO3`, in the experiment on MDA-N, the GI50 was 0.0158 µM (active).

As for `O=C1C(=O)N(C2CCCCC2)C(=S)N1C1CCCCC1`, the GI50 in the experiment with MDA-N was > 100 µM (inactive).

`Cc1ccc(S(=O)(=O)/N=C(\NN)Nc2ccc(Cl)cc2)cc1`: the GI50 in the experiment with MDA-N and in the experiment with BT-549 was > 100 µM (inactive) in each case.

For `CC(C)c1cccc(C(C)C)c1NC(=O)C(=O)C(C(=O)c1ccc2ccccc2c1)C1OC(=O)c2ccccc21` (configuration not stated), the GI50 in the experiment with LXFL 529 and in the experiment on DLD-1 was > 100 µM (inactive) in each case.

Take `CC(C)(C)C(=O)Oc1ccc(/C=C/C(=O)c2ccc(OC(=O)C(C)(C)C)cc2)cc1`: the GI50 with MDA-N was 39.1 µM (inactive).

`COc1ccccc1/C=C/c1ccnc2ccccc12`: the GI50 is 11.6 µM (inactive) in the experiment with MDA-N and 10.9 µM (inactive) with BT-549.

For the molecule `O=[N+]([O-])c1ccc(S(=O)(=O)N=Ic2ccccc2)cc1`, the GI50 in the experiment with MDA-N and in the experiment with BT-549 was > 100 µM (inactive) in each case.

On to `N#CC1=C(N)N(/N=C/c2ccco2)C(c2ccco2)C1(C#N)C#N` (configuration not stated), for which the results for the GI50 with MDA-N and in the experiment on BT-549 were 18.4 µM (inactive) and 17.6 µM (inactive), respectively.

For `NCC(O)CNC(=O)c1ccc(-c2ccc(-c3ccc(C(=O)NCC(O)CN)cc3)o2)cc1` (configuration not stated), the GI50 in the experiment with MDA-N is > 100 µM (inactive); in the experiment with BT-549, 32.7 µM (inactive).

With `CC(SC(=S)N1CCCCC1)C(=O)Nc1nnc(-c2ccc(Cl)cc2)o1` (configuration not stated), the GI50 in the experiment on BT-549 is 51.2 µM (inactive).

Take `Cc1cc2c3c(c1)CCCN3CCC2`: in the experiment with MDA-N, the GI50 was > 10 µM (inactive).

In the case of `COc1ccc(/C=N\NC(=O)Nc2cccc3ccccc23)cc1`, the GI50 with MDA-N is 2.7 µM (inactive); in the experiment with BT-549, 29.9 µM (inactive).

For the molecule `CC(C)=CCC/C(C)=C/CC/C(C)=C/CC/C(C=O)=C/CC/C(C)=C\CC/C(C)=C/CC/C(C)=C/CC/C(C)=C/CC1=CC(=O)C=CC1=O`, the GI50 in the experiment on MDA-N and with BT-549 was > 100 µM (inactive) each time.

Regarding `CC1(C)CC[C@]2(C)[C@@H](O)C[C@]3(C)C(=CC[C@@H]4[C@@]5(C)CC[C@H](O)C(C)(C)[C@@H]5CC[C@]43C)[C@@H]2C1`, the GI50 is > 100 µM (inactive) with MDA-N and 93.1 µM (inactive) with BT-549.

For the molecule `COC(=O)C1(NC(=O)C(N)CC(=O)O)C(C)C1C` (configuration not stated), the GI50 in the experiment on MDA-N is > 100 µM (inactive).
